Results from article doi:10.1101/525329v1, “The large loop-8 insert in Saccharomyces cerevisiae kinesin-5 Cin8 is necessary and sufficient to promote noncanonical microtubule interactions” (biorxiv, 2019).

Key:
Assay in all cases: NADH-coupled steady-state ATPase assay
Eg5-KL8 = system: T1, Eg5-KL8; format: biochemical, Homo sapiens; settings: high ionic strength (75 mM KCl, 88 mM IS), 10 μM paclitaxel-stabilized bovine microtubules, 2 mM MgCl2, pH 7.2, 298 K; kcat from microtubule-dependent fit; read-out: Km,ATP
T1 construct: gene KIF11; monomeric Eg5 motor domain with Kip1 loop-8 insert; bacterial expression, pET16b

Cin8-EL8 = system: T2, Cin8-EL8; format: biochemical, Saccharomyces cerevisiae; settings: low ionic strength (7.5 mM KCl, 21 mM IS), 5 μM paclitaxel-stabilized bovine microtubules, 2 mM MgCl2, pH 7.2, 298 K; kcat from microtubule-dependent fit; read-out: Km,ATP
T2 construct: monomeric Cin8 motor domain with Eg5 loop-8 insert; bacterial expression, pET32b

Eg5-CL8 = system: T3, Eg5-CL8; format: biochemical, Homo sapiens; settings: low ionic strength (7.5 mM KCl, 21 mM IS), 2 μM paclitaxel-stabilized bovine microtubules, 2 mM MgCl2, pH 7.2, 298 K; kcat from microtubule-dependent fit at 1 mM ATP
T3 construct: gene KIF11; monomeric Eg5 motor domain with 99-residue Cin8 loop-8 insert; bacterial expression, pET16b

Question: With `Nc1ncnc2c1ncn2[C@@H]1O[C@H](COP(=O)(O)OP(=O)(O)OP(=O)(O)O)[C@@H](O)[C@H]1O` [ATP] as the compound, how does the Km (Eg5-KL8) read?
Answer: The Km was 16 ± 4 µM.

Question: And the Km (Cin8-EL8)?
Answer: Its Km is 39 ± 7 µM.

Question: And the Km (Eg5-CL8)?
Answer: Its Km is 40 ± 11 µM.
